From US11472791B2 (Incyte Corporation, priority 2019, dated 2022)

These compounds were tested against CDK2/Cyclin E1 (Homo sapiens (Human), UniProt P24941) (assay: CDK2/Cyclin E1 HTRF enzyme activity assay). Settings: 1 mM ATP.
Assay type: biochemical
Experimental: Assays are conducted in white 384-well polystyrene plates in a final reaction volume of 8 μL. […] HTRF signals are read after 1 hour at room temperature on a PHERAstar FS plate reader (BMG Labtech). Data is analyzed with IDBS XLFit and GraphPad Prism 5.0 software using a three or four parameter dose response curve to determine IC50 for each compound.

SMILES | IC50 [nM]
CNCc1ccc(-n2cc(-c3nc(N[C@H]4CCN(S(C)(=O)=O)C[C@H]4F)ncc3C#N)cn2)c(Cl)c1 [Example 116, 4-(1-(2-Chloro-4-((methylamino)methyl)phenyl)-1H-pyrazol-4-yl)-2-(((3R,4S)-3-fluoro-1-(methylsulfonyl)piperidin-4-yl)amino)pyrimidine-5-carbonitrile] | < 50
CCS(=O)(=O)N1CC[C@H](Nc2ncc(C#N)c(-c3cnn(-c4ccc(CNC)cc4Cl)c3)n2)[C@H](F)C1 [Example 117, 4-(1-(2-Chloro-4-((methylamino)methyl)phenyl)-1H-pyrazol-4-yl)-2-(((3R,4S)-1-(ethylsulfonyl)-3-fluoropiperidin-4-yl)amino)pyrimidine-5-carbonitrile] | < 50
CCCS(=O)(=O)N1CC[C@H](Nc2ncc(C#N)c(-c3cnn(-c4ccc(CNC)cc4Cl)c3)n2)[C@H](F)C1 [Example 118, 4-(1-(2-Chloro-4-((methylamino)methyl)phenyl)-1H-pyrazol-4-yl)-2-(((3R,4S)-3-fluoro-1-(propylsulfonyl)piperidin-4-yl)amino)pyrimidine-5-carbonitrile] | < 50
CNCc1ccc(-n2cc(-c3nc(N[C@H]4CCN(S(=O)(=O)C5CCC5)C[C@H]4F)ncc3C#N)cn2)c(Cl)c1 [Example 121, 4-(1-(2-Chloro-4-((methylamino)methyl)phenyl)-1H-pyrazol-4-yl)-2-(((3R,4S)-1-(cyclobutylsulfonyl)-3-fluoropiperidin-4-yl)amino)pyrimidine-5-carbonitrile] | < 50
CNCc1ccc(-n2cc(-c3nc(N[C@H]4CCN(S(=O)(=O)CCCC#N)C[C@H]4F)ncc3C#N)cn2)c(Cl)c1 [Example 122, 4-(1-(2-Chloro-4-((methylamino)methyl)phenyl)-1H-pyrazol-4-yl)-2-(((3R,4S)-1-((3-cyanopropyl)sulfonyl)-3-fluoropiperidin-4-yl)amino)pyrimidine-5-carbonitrile] | < 50
CNCc1ccc(-n2cc(-c3nc(N[C@H]4CCN(S(=O)(=O)C5CC5)C[C@H]4F)ncc3C(F)(F)F)cn2)c(C)c1 [Example 123, N-((3R,4S)-1-(Cyclopropylsulfonyl)-3-fluoropiperidin-4-yl)-4-(1-(2-methyl-4-((methylamino)methyl)phenyl)-1H-pyrazol-4-yl)-5-(trifluoromethyl)pyrimidin-2-amine] | < 50
CNCc1ccc(-n2cc(-c3nc(NC4CCN(S(C)(=O)=O)CC4)ncc3Cl)cn2)c(Cl)c1 [Example 124, 5-Chloro-4-(1-(2-chloro-4-((methylamino)methyl)phenyl)-1H-pyrazol-4-yl)-N-(1-(methylsulfonyl)piperidin-4-yl)pyrimidin-2-amine] | < 50
CCNCc1ccc(-n2cc(-c3nc(NC4CCN(S(=O)(=O)CC)CC4)ncc3C#N)cn2)c(C)n1 [Example 125, 4-(1-(6-((Ethylamino)methyl)-2-methylpyridin-3-yl)-1H-pyrazol-4-yl)-2-((1-(ethylsulfonyl)piperidin-4-yl)amino)pyrimidine-5-carbonitrile] | < 50
CCNCc1ccc(-n2cc(-c3nc(NC4CCN(S(=O)(=O)c5cn(C)cn5)CC4)ncc3C#N)cn2)c(C)n1 [Example 127, 4-(1-(6-((Ethylamino)methyl)-2-methylpyridin-3-yl)-1H-pyrazol-4-yl)-2-((1-((1-methyl-1H-imidazol-4-yl)sulfonyl)piperidin-4-yl)amino)pyrimidine-5-carbonitrile] | < 50
[2H]C([2H])([2H])NCc1ccc(-n2cc(-c3nc(NC4CCN(S(=O)(=O)C5CC5)CC4)ncc3C(F)(F)F)cn2)c(C)c1 [Example 130, N-(1-(Cyclopropylsulfonyl)piperidin-4-yl)-4-(1-(2-methyl-4-(((methyl-d3)amino)methyl)phenyl)-1H-pyrazol-4-yl)-5-(trifluoromethyl)pyrimidin-2-amine] | < 50
[2H]C([2H])([2H])NCc1ccc(-n2cc(-c3nc(NC4CCN(S(=O)(=O)c5ccn(C)n5)CC4)ncc3C(F)(F)F)cn2)c(C)c1 [Example 131, N-(1-((1-Methyl-1H-pyrazol-3-yl)sulfonyl)piperidin-4-yl)-4-(1-(2-methyl-4-(((methyl-d3)amino)methyl)phenyl)-1H-pyrazol-4-yl)-5-(trifluoromethyl)pyrimidin-2-amine] | < 50
[2H]C([2H])([2H])NCc1ccc(-n2cc(-c3nc(N[C@H]4CCN(S(=O)(=O)C5CC5)C[C@H]4F)ncc3C(F)(F)F)cn2)c(C)c1 [Example 133, N-((3R,4S)-1-(Cyclopropylsulfonyl)-3-fluoropiperidin-4-yl)-4-(1-(2-methyl-4-(((methyl-d3)amino)methyl)phenyl)-1H-pyrazol-4-yl)-5-(trifluoromethyl)pyrimidin-2-amine] | < 50
[2H]C([2H])([2H])NCc1ccc(-n2cc(-c3nc(NC4CCN(S(C)(=O)=O)CC4)ncc3Cl)cn2)c(Cl)c1 [Example 134, 5-Chloro-4-(1-(2-chloro-4-(((methyl-d3)amino)methyl)phenyl)-1H-pyrazol-4-yl)-N-(1-(methylsulfonyl)piperidin-4-yl)pyrimidin-2-amine] | < 50
[2H]C([2H])([2H])NCc1ccc(-n2cc(-c3nc(NC4CCN(S(=O)(=O)C5CC5)CC4)ncc3Cl)cn2)c(Cl)c1 [Example 135, 5-Chloro-4-(1-(2-chloro-4-(((methyl-d3)amino)methyl)phenyl)-1H-pyrazol-4-yl)-N-(1-(cyclopropylsulfonyl)piperidin-4-yl)pyrimidin-2-amine] | < 50
[2H]C([2H])([2H])NCc1ccc(-n2cc(-c3nc(NC4CCN(S(=O)(=O)c5ccn(C)n5)CC4)ncc3Cl)cn2)c(C)c1 [Example 137, 5-Chloro-N-(1-((1-methyl-1H-pyrazol-3-yl)sulfonyl)piperidin-4-yl)-4-(1-(2-methyl-4-(((methyl-d3)amino)methyl)phenyl)-1H-pyrazol-4-yl)pyrimidin-2-amine] | < 50
[2H]C(NC([2H])([2H])[2H])c1ccc(-n2cc(-c3nc(NC4CCN(S(=O)(=O)CC)CC4)ncc3C#N)cn2)c(Cl)c1 (centres unmarked) [Example 140, 4-(1-(2-Chloro-4-(((methyl-d3)amino)methyl-d)phenyl)-1H-pyrazol-4-yl)-2-((1-(ethylsulfonyl)piperidin-4-yl)amino)pyrimidine-5-carbonitrile] | < 50
[2H]C([2H])([2H])NCc1ccc(-n2cc(-c3nc(NC4CCN(S(=O)(=O)C5CC5)CC4)ncc3C#N)cn2)c(Cl)c1 [Example 141, 4-(1-(2-Chloro-4-(((methyl-d3)amino)methyl)phenyl)-1H-pyrazol-4-yl)-2-((1-(cyclopropylsulfonyl)piperidin-4-yl)amino)pyrimidine-5-carbonitrile] | < 50

The remaining lines, values ahead:

IC50 [nM] | SMILES
< 50 | CCNCc1ccc(-n2cc(-c3nc(NC4CCN(S(C)(=O)=O)CC4)ncc3C#N)cn2)c(Cl)c1 [Example 115, 4-(1-(2-Chloro-4-((ethylamino)methyl)phenyl)-1H-pyrazol-4-yl)-2-((1-(methylsulfonyl)piperidin-4-yl)amino)pyrimidine-5-carbonitrile]
< 50 | CNCc1ccc(-n2cc(-c3nc(N[C@H]4CCN(S(=O)(=O)C(C)C)C[C@H]4F)ncc3C#N)cn2)c(Cl)c1 [Example 119, 4-(1-(2-Chloro-4-((methylamino)methyl)phenyl)-1H-pyrazol-4-yl)-2-(((3R,4S)-3-fluoro-1-(isopropylsulfonyl)piperidin-4-yl)amino)pyrimidine-5-carbonitrile]
< 50 | CNCc1ccc(-n2cc(-c3nc(N[C@H]4CCN(S(=O)(=O)C5CC5)C[C@H]4F)ncc3C#N)cn2)c(Cl)c1 [Example 120, 4-(1-(2-Chloro-4-((methylamino)methyl)phenyl)-1H-pyrazol-4-yl)-2-(((3R,4S)-1-(cyclopropylsulfonyl)-3-fluoropiperidin-4-yl)amino)pyrimidine-5-carbonitrile]
< 50 | CNCc1ccc(-n2cc(-c3nc(NC4CCN(S(=O)(=O)c5cn(C)cn5)CC4)ncc3C#N)cn2)c(C)n1 [Example 126, 2-((1-((1-Methyl-1H-imidazol-4-yl)sulfonyl)piperidin-4-yl)amino)-4-(1-(2-methyl-6-((methylamino)methyl)pyridin-3-yl)-1H-pyrazol-4-yl)pyrimidine-5-carbonitrile]
< 50 | [2H]C([2H])([2H])NCc1ccc(-n2cc(-c3nc(NC4CCN(S(C)(=O)=O)CC4)ncc3C(F)(F)F)cn2)c(C)c1 [Example 128, 4-(1-(2-Methyl-4-(((methyl-d3)amino)methyl)phenyl)-1H-pyrazol-4-yl)-N-(1-(methylsulfonyl)piperidin-4-yl)-5-(trifluoromethyl)pyrimidin-2-amine]
< 50 | [2H]C([2H])([2H])NCc1ccc(-n2cc(-c3nc(NC4CCN(S(=O)(=O)CC)CC4)ncc3C(F)(F)F)cn2)c(C)c1 [Example 129, N-(1-(Ethylsulfonyl)piperidin-4-yl)-4-(1-(2-methyl-4-(((methyl-d3)amino)methyl)phenyl)-1H-pyrazol-4-yl)-5-(trifluoromethyl)pyrimidin-2-amine]
< 50 | [2H]C([2H])([2H])NCc1ccc(-n2cc(-c3nc(N[C@H]4CCN(S(C)(=O)=O)C[C@H]4F)ncc3C(F)(F)F)cn2)c(C)c1 [Example 132, N-((3R,4S)-3-Fluoro-1-(methylsulfonyl)piperidin-4-yl)-4-(1-(2-methyl-4-(((methyl-d3)amino)methyl)phenyl)-1H-pyrazol-4-yl)-5-(trifluoromethyl)pyrimidin-2-amine]
< 50 | [2H]C([2H])([2H])NCc1ccc(-n2cc(-c3nc(NC4CCN(S(=O)(=O)c5cn(C)cn5)CC4)ncc3Cl)cn2)c(C)c1 [Example 136, 5-Chloro-N-(1-((1-methyl-1H-imidazol-4-yl)sulfonyl)piperidin-4-yl)-4-(1-(2-methyl-4-(((methyl-d3)amino)methyl)phenyl)-1H-pyrazol-4-yl)pyrimidin-2-amine]
< 50 | [2H]C([2H])([2H])NCc1ccc(-n2cc(-c3nc(NC4CCN(S(=O)(=O)CC)CC4)ncc3C#N)cn2)c(Cl)c1 [Example 139, 4-(1-(2-Chloro-4-(((methyl-d3)amino)methyl)phenyl)-1H-pyrazol-4-yl)-2((1-(ethylsulfonyl)piperidin-4-yl)amino)pyrimidine-5-carbonitrile]
